Reference: patent US9884842B2, “Combretastatin analogs” (The Board of Trustees of the University of Arkansas, priority 2013, dated 2018)

Columns and labels:
OVCAR-3 = assay: cells; conditions: Homo sapiens; for GI50: OVCAR-3; for CC50: OVCAR-3, read-out: LC50
K-562 = assay: NCI growth inhibition and cytotoxicity screen, Leukemia panel; conditions: Homo sapiens; for GI50: K562; for CC50: K562, read-out: LC50
RPMI-8226 = assay: as above; conditions: Homo sapiens; for GI50: RPMI-8226; for CC50: RPMI-8226, read-out: LC50
LOX-IMVI = assay: NCI growth inhibition and cytotoxicity screen, Melanoma panel; conditions: Homo sapiens; for CC50: read-out: LC50
M14 = assay: as above; conditions: Homo sapiens; for GI50: M14; for CC50: M14, read-out: LC50
SK-MEL-2 = assay: as above; conditions: Homo sapiens; for GI50: SK-MEL-2; for CC50: SK-MEL-2, read-out: LC50
SK-MEL-28 = assay: as above; conditions: Homo sapiens; for GI50: SK-MEL-28; for CC50: SK-MEL-28, read-out: LC50
UACC-257 = assay: as above; conditions: Homo sapiens; for GI50: UACC-257; for CC50: UACC-257, read-out: LC50
UACC-62 = assay: as above; conditions: Homo sapiens; for GI50: UACC-62; for CC50: UACC-62, read-out: LC50
SF-268 = assay: NCI growth inhibition and cytotoxicity screen, CNS Cancer panel; conditions: Homo sapiens; for GI50: SF-268; for CC50: SF-268, read-out: LC50
SF-539 = assay: as above; conditions: Homo sapiens; for GI50: SF-539; for CC50: SF-539, read-out: LC50
SNB-19 = assay: as above; conditions: Homo sapiens; for GI50: SNB-19; for CC50: SNB-19, read-out: LC50
SNB-75 = assay: as above; conditions: Homo sapiens; for GI50: SNB-75; for CC50: SNB-75, read-out: LC50
U251 = assay: as above; conditions: Homo sapiens; for GI50: U-251; for CC50: U-251, read-out: LC50
A549/ATCC = assay: NCI growth inhibition and cytotoxicity screen, Lung Cancer panel; conditions: Homo sapiens; for GI50: A549; for CC50: A549, read-out: LC50
HOP-92 = assay: as above; conditions: Homo sapiens; for GI50: HOP-92; for CC50: HOP-92, read-out: LC50
NCI-H226 = assay: as above; conditions: Homo sapiens; for GI50: NCI-H226; for CC50: NCI-H226, read-out: LC50
NCI-H460 = assay: as above; conditions: Homo sapiens; for GI50: NCI-H460; for CC50: NCI-H460, read-out: LC50
HT29 = assay: NCI growth inhibition and cytotoxicity screen, Colon Cancer panel; conditions: Homo sapiens; for GI50: HT-29; for CC50: HT-29, read-out: LC50
KM12 = assay: as above; conditions: Homo sapiens; for GI50: KM12; for CC50: KM12, read-out: LC50
786-0 = assay: NCI growth inhibition and cytotoxicity screen, Renal Cancer panel; conditions: Homo sapiens; for GI50: 786-0; for CC50: 786-0, read-out: LC50
A498 = assay: as above; conditions: Homo sapiens; for GI50: A498; for CC50: A498, read-out: LC50
CAKI-1 = assay: as above; conditions: Homo sapiens; for GI50: CAKI-1; for CC50: CAKI-1, read-out: LC50
TK-10 = assay: as above; conditions: Homo sapiens; for GI50: TK-10; for CC50: TK-10, read-out: LC50
MCF7 = assay: NCI growth inhibition and cytotoxicity screen, Breast Cancer panel; conditions: Homo sapiens; for GI50: MCF7; for CC50: MCF7, read-out: LC50
BT-549 = assay: as above; conditions: Homo sapiens; for GI50: BT-549; for CC50: BT-549, read-out: LC50
T-47D = assay: as above; conditions: Homo sapiens, T47D; for CC50: read-out: LC50
IGROV1 = assay: NCI growth inhibition and cytotoxicity screen, Ovarian Cancer panel; conditions: Homo sapiens; for GI50: IGROV-1; for CC50: IGROV-1, read-out: LC50
OVCAR-5 = assay: as above; conditions: Homo sapiens; for GI50: OVCAR-5; for CC50: OVCAR-5, read-out: LC50
NCI/ADR-RES = assay: as above; conditions: Homo sapiens; for CC50: read-out: LC50
SK-OV-3 = assay: as above; conditions: Homo sapiens; for GI50: SK-OV-3; for CC50: SK-OV-3, read-out: LC50

COc1cc(/C=C/c2nc3ccccc3s2)cc(OC)c1OC [Formula (I)(d)]
GI50 (OVCAR-3): 0.069 nM | CC50 (OVCAR-3): > 100000 nM | GI50 (K-562): 0.041 nM | CC50 (K-562): > 100000 nM | GI50 (RPMI-8226): 0.15 nM | CC50 (RPMI-8226): > 100000 nM | GI50 (LOX-IMVI): 1.9 nM | CC50 (LOX-IMVI): 67900 nM | GI50 (M14): 0.063 nM | CC50 (M14): 48500 nM | GI50 (SK-MEL-2): 0.064 nM | CC50 (SK-MEL-2): 64200 nM | GI50 (SK-MEL-28): 0.31 nM | CC50 (SK-MEL-28): 50500 nM | GI50 (UACC-257): 15 nM | CC50 (UACC-257): > 100000 nM | GI50 (UACC-62): 0.05 nM | CC50 (UACC-62): 55900 nM | GI50 (SF-268): 0.56 nM | CC50 (SF-268): > 100000 nM | GI50 (SF-539): 0.076 nM | CC50 (SF-539): 56200 nM | GI50 (SNB-19): 0.095 nM | CC50 (SNB-19): > 100000 nM | GI50 (SNB-75): 0.16 nM | CC50 (SNB-75): > 100000 nM | GI50 (U251): 0.88 nM | CC50 (U251): > 100000 nM | GI50 (A549/ATCC): 0.11 nM | CC50 (A549/ATCC): > 100000 nM | GI50 (HOP-92): 0.036 nM | CC50 (HOP-92): 77400 nM | GI50 (NCI-H226): 0.24 nM | CC50 (NCI-H226): 88500 nM | GI50 (NCI-H460): 0.11 nM | CC50 (NCI-H460): > 100000 nM | GI50 (HT29): 0.038 nM | CC50 (HT29): > 100000 nM | GI50 (KM12): 0.072 nM | CC50 (KM12): 41600 nM | GI50 (786-0): 1.32 nM | CC50 (786-0): > 100000 nM | GI50 (A498): 0.041 nM | CC50 (A498): 35800 nM | GI50 (CAKI-1): 0.14 nM | CC50 (CAKI-1): > 100000 nM | GI50 (TK-10): 11.1 nM | CC50 (TK-10): > 100000 nM | GI50 (MCF7): 0.31 nM | CC50 (MCF7): 51500 nM | GI50 (BT-549): 3.7 nM | CC50 (BT-549): 58800 nM | GI50 (T-47D): 0.96 nM | CC50 (T-47D): > 100000 nM | GI50 (IGROV1): 0.24 nM | CC50 (IGROV1): 94200 nM | GI50 (OVCAR-5): 0.93 nM | CC50 (OVCAR-5): > 100000 nM | GI50 (NCI/ADR-RES): 0.1 nM | CC50 (NCI/ADR-RES): > 100000 nM | GI50 (SK-OV-3): 0.16 nM | CC50 (SK-OV-3): > 100000 nM

COc1cc(OC)cc(/C(C#N)=C/c2cnc3ccccc3c2)c1 [PNR-4-85, (Z)-3-(quinolin-3-yl)-2-(3,5-dimethoxyphenyl)acrylonitrile]
GI50 (OVCAR-3): 279 nM | CC50 (OVCAR-3): > 100000 nM | GI50 (K-562): 243 nM | CC50 (K-562): > 100000 nM | GI50 (RPMI-8226): 332 nM | CC50 (RPMI-8226): > 100000 nM | GI50 (LOX-IMVI): 672 nM | CC50 (LOX-IMVI): > 100000 nM | GI50 (M14): 310 nM | CC50 (M14): > 100000 nM | GI50 (SK-MEL-2): 709 nM | CC50 (SK-MEL-2): > 100000 nM | GI50 (SK-MEL-28): 1400 nM | CC50 (SK-MEL-28): > 100000 nM | GI50 (UACC-257): 12800 nM | CC50 (UACC-257): > 100000 nM | GI50 (UACC-62): 357 nM | CC50 (UACC-62): > 100000 nM | GI50 (SF-268): 654 nM | CC50 (SF-268): > 100000 nM | GI50 (SF-539): 289 nM | CC50 (SF-539): > 100000 nM | GI50 (SNB-19): 614 nM | CC50 (SNB-19): > 100000 nM | GI50 (SNB-75): 224 nM | CC50 (SNB-75): > 100000 nM | GI50 (U251): 374 nM | CC50 (U251): > 100000 nM | GI50 (A549/ATCC): 556 nM | CC50 (A549/ATCC): > 100000 nM | GI50 (HOP-92): 3090 nM | CC50 (HOP-92): > 100000 nM | GI50 (NCI-H226): 62200 nM | CC50 (NCI-H226): > 100000 nM | GI50 (NCI-H460): 362 nM | CC50 (NCI-H460): > 100000 nM | GI50 (HT29): 362 nM | CC50 (HT29): > 100000 nM | GI50 (KM12): 409 nM | CC50 (KM12): > 100000 nM | GI50 (786-0): 484 nM | CC50 (786-0): > 100000 nM | GI50 (A498): 333 nM | CC50 (A498): > 100000 nM | GI50 (CAKI-1): 223 nM | CC50 (CAKI-1): > 100000 nM | GI50 (TK-10): 17700 nM | CC50 (TK-10): > 100000 nM | GI50 (MCF7): 333 nM | CC50 (MCF7): > 100000 nM | GI50 (BT-549): 388 nM | CC50 (BT-549): > 100000 nM | GI50 (T-47D): 628 nM | CC50 (T-47D): > 100000 nM | GI50 (IGROV1): 3500 nM | CC50 (IGROV1): > 100000 nM | GI50 (OVCAR-5): 587 nM | CC50 (OVCAR-5): > 100000 nM | GI50 (NCI/ADR-RES): 224 nM | CC50 (NCI/ADR-RES): > 100000 nM | GI50 (SK-OV-3): 576 nM | CC50 (SK-OV-3): > 100000 nM
